Results as given in patent US20090105149A1, “Compounds comprising lpa” (ENKAM PHARMACEUTICALS A/S, priority 2003, published 2009).
Marks after values point to notes of the source that are not given here.

How the values were obtained:
[1] = test system: cerebellar granule neurons (CGN); assay: TUNEL assay, DNA-fragmentation in KCl-deprived CGN; type: cell-based, rat; conditions: at 10-15 μg/ml; relative to apoptotic neurons without treatment
Procedure: The number of neurons with fragmented DNA was measured using the Apo-Alert apoptosis detection kit and the fraction of TUNEL-positive neurons was estimated by counting. Results from at least four independent experiments are shown as percentage of cells showing DNA-fragmentation relative to the total number of cells ±SEM with control cultures in low KCl set at 100%. • (a) Effect of depriving CGN cultures of high KCl on number of cells undergoing apoptosis. • (b) Effect of FGLd in apoptosis-induced CGN cultures.
24 hours after induction of apoptotic cell death, the cultures were fixed and the extent of DNA-fragmentation was measured using the ApoAlert apoptosis detection kit, essentially as described by the manufacturer. Briefly, blunt ends of double-stranded DNA molecules were enzymatically labelled with fluorescein-dUTP, and all the neurons were stained with propidium iodide at a concentration of 750 ng/ml. Images of at least 200 neurons from each group in each experiment were obtained using a BioRad Radiance laser scanning system 2000 coupled to a Nikon Eclipse TE 200 confocal microscope equipped with an oil immersion 60×1.4 NA objective (Nikon, Tokyo, Japan). The fraction of TUNEL-positive neurons was determined by counting.

[2] = test system: dissociated hippocampal neurons; assay: OGD, metabolic activity (MTS) in dissociated hippocampal cell cultures; type: cell-based, rat
Text: In the present study it was investigated the effect of the FGL peptide on synaptic plasticity, neuronal function and vulnerability following oxygen and glucose deprivation (OGD) in organotypic hippocampal neuronal slice cultures (OHSC) from 7-day-old Wistar rats according to method of Stoppini et al. (1991) Neurosci Methods. 37:173-82 and primary cultures of dissociated hippocampal neurons from 1-day-old rats according to method of Maar et al. (1997) J Neurosci Res. 47:163-72. Primary cell cultures were maintained for 11-12 days and OHSC for 12-14 days prior to adding FGLd.
The primary cell cultures and OHSC were exposed to OGD for 10 and 20 minutes. Following OGD, the cultures were again supplied with oxygen and glucose and analysed at 1, 4 or 24 hour time point after introduction of OGD exposure. FGLd (or the control peptide FGLc) was added 24 hr before, immediately, or 1 hr or 24 hr after OGD. When administered prior to OGD, FGLd was removed from the medium when introducing OGD. In some cases, the slice cultures were treated with FGLd only at 4 hr after OGD. In addition, the FGFR inhibitor, SU5402 (25 μM), was added together with FGLd in some of the set-ups.
In hippocampal neuronal cultures, FM 1-43 staining was used to evaluate pre-synaptic function (described above). Cell viability in both primary cell cultures and OHSC was measured using the […] [3-(4,5-dimethylthiazol-2-yl)-2,5-diphenyltetrazolium bromide] assay according to Malich et al, (1997) Toxicology. 124:179-92. In, addition, cell viability in OHSC was measured using propidium iodide (PI) staining according to Laake et al. (1999) Brain Res Brain Res Protoc. 4:173-84.

[3] = test system: rats treated with (25-35) β-amyloid fragment; assay: Amyloid burden in brain sections, (25-35) β-amyloid fragment rat model; type: in vivo; conditions: Study 2; sub-occipital 5 μg, days 7, 10, 13; β-amyloid only = 100%
Procedure: The number of animals in the groups varied from 3 to 13. Results were analysed using one-way ANOVA (F(2,18)=5.2, p=0.016), and significance of results was contingent on achieving a p-value of less than 0.05 (*p<0.05 and **p<0.01), when compared with the A-β/V group (Newman-Keuls posttest).
The number of animals in the groups varied from 2 to 12. Results were analysed using one-way ANOVA (F(2,15)=9.54, p=0.002), and significance of results was contingent on achieving a p-value of less than 0.05 (***p<0.001), when compared with the A-β/V group (Newman-Keuls posttest).
The number of animals per group varied from 3 to 13. The results were analysed using one-way ANOVA (F(2,12)=18.6, P=0.002) and significance of results was contingent on achieving a p-value of less than 0.05 (***p<0.001) when compared with the A-β/V group (Bonferroni's multiple comparison test).
The number of animals per group varied from 3 to 5. The results were analysed using one-way ANOVA (F(2,9)=10.6, P=0.004) and significance of results was contingent on achieving a p-value of less than 0.05 (***p<0.001) when compared with the A-β/V group (Newman-Keuls post-test).
Behaviour of animals was evaluated using the Social Recognition test, the Open Field test or the Light-dark Discriminating γ-maze. […] In addition, the number of neurons in selected areas of brain-sections was calculated using a stereological approach.

rats = assay: Morris Water Maze test; type: in vivo, rat
Procedure: In the Morris Water Maze test, rats are evaluated in the spatial training task to find a hidden platform in order to escape swimming in the water.
In the Morris Water Maze study, rats were pre-trained to locate a hidden platform by daily training for 120 seconds for five days (days−4 to 0) before the experiment. On days 1 and 2, rats were given 3 consecutive trials in which the platform location remained constant. The time during which the rats were able to locate the platform was recorded within a maximum test-period of 120 seconds. The rats received a 5 μl injection of the FGLd peptide (5 μg), the control peptide (5 μg), or the vehicle solution immediately after each training trial on days 1 and 2.
The animals were tested 24 hours (day 3) and 7 days (day 10) after training. Fourteen days after training (day 17), the location of the platform was changed. Rats were trained to find a new location of the platform in three consecutive trials (“reversal learning”). In total, 48 animals were evaluated. Animals were divided into three groups consisting of 12-18 rats per treatment group.

[4] = test system: cerebellar granule neurons (CGN); assay: Survival of CGN induced to undergo apoptosis by low KCl; conditions: for Neuronal Survival (% of Control): Low K+ (5 mM)
Procedure: Cerebella granular meurons (CGN) (e and f) from postnatal day 7 rats were grown at a density of 100,000 cells/cm^2 for 7 days on poly-L-lysine coated microtiter plates in the medium containing 40 mM KCl, then the medium was substituted to a 5 mM KCl containing medium supplemented with various concentrations of FGLd.
For the experiments cerebellar tissue was dissected in modified Krebs-Ringer solution kept on ice, and treated as described for the hippocampal neurons above. All cell cultures were incubated at 37° C. in a humidified atmosphere containing 5% CO2.
Primary cultures of CGN were plated at a density of 100,000 cells/cm^2 on poly-L-lysine coated 8-well permanox slides in Neurobasal-A medium (Gibco, BRL) supplemented with 2% (v/v) B27, 0.5% (v/v) glutamax, 100 U/ml penicillin, 100 μg/ml streptomycin and KCl, making the final concentration of KCl in the medium 40 mM. 24 hours after plating, cytosine-β-D-arabinofuranoside (Ara-C; Sigma-Aldrich) was added to a final concentration of 10 μM to avoid proliferation of glial cells, after which the neurons were allowed to differentiate for further six days at 37° C. Apoptotic cell death was induced by washing twice and changing the medium to Basal Medium Eagle (BME; Gibco BRL) supplemented with 1% (v/v) glutamine, 100 U/ml penicillin and 100 μg/ml streptomycin, 3.5 g D-glucose/l and 1% (v/v) sodium pyruvate (Gibco BRL) together with various concentrations of peptide. Thereby the concentration of potassium in the cultures was reduced to 5 mM KCl. Two days after induction of apoptosis, the cells were fixed with 4% formaldehyde and stained with Hoechst 33258 as described for the survival assay employing hippocampal neurons.

**Q.** Which results are given for “FGLd: MAP-type dendrimer of FGL; dendrimeric tetramer of the FGL peptide (EVYVVAENQQGKSKA)”?
**A.** reduction of number of apoptotic CGN (DNA-fragmentation), maximal rescue [1]: 40%; metabolic activity (MTS), treatment alone ([2]; no OGD): led to an increase in metabolic activity; metabolic activity (MTS) after 20 min OGD ([2]; treated 24 hours before or immediately after OGD): the effect of OGD on metabolic activity was diminished; amyloid burden in the CA3 area of the hippocampus [3]: 44%; amyloid burden in the cingulate cortex [3]: 42%; time to locate the platform (rats; day 2, 5 μg after training, untreated rats 93.0 s): 65.8 s; time to locate the platform (reversal learning) (rats; day 17): statistically significant; Neuronal Survival (% of Control) ([4]; CGN (PND 3-4), 1 μg/mL): 131%* % of Control; Neuronal Survival (% of Control) ([4]; CGN (PND 3-4), 5 μg/mL): 110%* % of Control; Neuronal Survival (% of Control) ([4]; CGN (PND 3-4), 10 μg/mL): 132%* % of Control; Neuronal Survival (% of Control) ([4]; CGN (PND 3-4), 20 μg/mL): 117%** % of Control; Neuronal Survival (% of Control) ([4]; CGN (PND 7-8), 20 μg/mL): 175%* % of Control; maximal neuroprotection of CGN ([4]; at 1-10 μg/ml, controls grown at low KCl = 100%): 135%
